PubChem BioAssay (NCI)
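Each compound was tested at five concentrations against cells in 96-well plates for 48 hours. At the TGI there is no net growth.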

Key:
Assay in all cases: NCI tumour cell line growth inhibition, 48 h
[1] = system: OVCAR-3 ovarian
[2] = system: TK-10 renal
[3] = system: PC-3 prostate
[4] = system: SW-620 colon
[5] = system: EKVX NSCLC
[6] = system: IGROV1 ovarian
[7] = system: HCC-2998 colon
[8] = system: SR leukemia
[9] = system: 786-0 renal
[10] = system: CCRF-CEM leukemia
[11] = system: KM12 colon
[12] = system: SK-MEL-5 melanoma
[13] = system: RPMI-8226 leukemia
[14] = system: M14 melanoma
[15] = system: SN12C renal
[16] = system: SNB-75 CNS
[17] = system: UO-31 renal
[18] = system: HS 578T breast
[19] = system: OVCAR-8 ovarian
[20] = system: SF-268 CNS
[21] = system: HCT-15 colon
[22] = system: NCI-H23 lung
[23] = system: COLO 205 colon
[24] = system: SF-295 CNS
[25] = system: T-47D breast
[26] = system: NCI/ADR-RES ovarian
[27] = system: HT29 colon
[28] = system: MDA-N
[29] = system: K-562 leukemia
[30] = system: MDA-MB-231 breast
[31] = system: U251 CNS
[32] = system: UACC-62 melanoma
[33] = system: MALME-3M melanoma
[34] = system: NCI-H460 lung
[35] = system: NCI-H522 lung
[36] = system: MOLT-4 leukemia
[37] = system: OVCAR-5 ovarian
[38] = system: OVCAR-4 ovarian
[39] = system: SK-OV-3 ovarian
[40] = system: MCF7 breast
[41] = system: MDA-MB-435
[42] = system: UACC-257 melanoma
[43] = system: SK-MEL-28 melanoma
[44] = system: CAKI-1 renal
[45] = system: HOP-62 NSCLC
[46] = system: SK-MEL-2 melanoma
[47] = system: HOP-92 NSCLC
[48] = system: LOX IMVI melanoma
[49] = system: BT-549 breast
[50] = system: SNB-19 CNS
[51] = system: A498 renal
[52] = system: HL-60(TB) leukemia
[53] = system: SF-539 CNS
[54] = system: ACHN renal
[55] = system: DU-145 prostate
[56] = system: A549 NSCLC
[57] = system: NCI-H226 lung
[58] = system: HCT-116 colon

SMILES: CCC1(O)CC(OC2CC(N(C)C)C(OC3CC(O)C(OC4CCC(=O)C(C)O4)C(C)O3)C(C)O2)c2c(cc3c(c2O)C(=O)c2c(O)ccc(O)c2C3=O)C1C(=O)OC (stereo not given)
- TGI [1]: 0.186 µM
- TGI [2]: 0.0339 µM
- TGI [3]: 0.393 µM
- TGI [4]: 3.56 µM
- TGI [5]: 0.116 µM
- TGI [6]: 1.22 µM
- TGI [7]: < 0.0112 µM
- TGI [8]: < 0.01 µM
- TGI [9]: 0.493 µM
- TGI [10]: 0.0528 µM
- TGI [11]: 0.0994 µM
- TGI [12]: 0.0282 µM
- TGI [13]: 0.0109 µM
- TGI [14]: 0.0516 µM
- TGI [15]: 1.18 µM
- TGI [16]: 0.0846 µM
- TGI [17]: < 0.01 µM
- TGI [18]: 0.384 µM
- TGI [19]: 0.0739 µM
- TGI [20]: 0.208 µM
- TGI [21]: 0.018 µM
- TGI [22]: 0.0343 µM
- TGI [23]: 0.0131 µM
- TGI [24]: 0.441 µM
- TGI [25]: 0.597 µM
- TGI [26]: 0.259 µM
- TGI [27]: < 0.0105 µM
- TGI [28]: 0.0251 µM
- TGI [29]: < 0.01 µM
- TGI [30]: 0.113 µM
- TGI [31]: 2.22 µM
- TGI [32]: < 0.0132 µM
- TGI [33]: 0.029 µM
- TGI [34]: < 0.01 µM
- TGI [35]: < 0.01 µM
- TGI [36]: 0.0101 µM
- TGI [37]: 10.8 µM
- TGI [38]: 0.214 µM
- TGI [39]: 13.3 µM
- TGI [40]: 2.01 µM
- TGI [41]: 0.409 µM
- TGI [42]: 0.0294 µM
- TGI [43]: 0.211 µM
- TGI [44]: < 0.01 µM
- TGI [45]: 0.156 µM
- TGI [46]: 0.0148 µM
- TGI [47]: 0.0185 µM
- TGI [48]: < 0.01 µM
- TGI [49]: 1.78 µM
- TGI [50]: 2.41 µM

SMILES: CCN(CC)CCCNc1[nH]ncc2cc3c(nc4ccccc43)c(C)c12
- TGI [1]: 28.6 µM
- TGI [2]: 36.2 µM
- TGI [3]: 25.5 µM
- TGI [51]: 28.7 µM
- TGI [4]: 17.4 µM
- TGI [5]: 23.5 µM
- TGI [6]: 15.7 µM
- TGI [7]: 23.2 µM
- TGI [52]: 27.1 µM
- TGI [9]: 17.3 µM
- TGI [10]: 21.3 µM
- TGI [11]: 18.5 µM
- TGI [12]: 38 µM
- TGI [13]: 31.3 µM
- TGI [53]: 34.1 µM
- TGI [14]: 52.3 µM
- TGI [15]: 19.9 µM
- TGI [16]: 26.4 µM
- TGI [54]: 21.9 µM
- TGI [17]: 24.5 µM
- TGI [18]: 29.2 µM
- TGI [19]: 24.5 µM
- TGI [20]: 20.6 µM
- TGI [21]: 30 µM
- TGI [22]: 28 µM
- TGI [23]: 23.4 µM
- TGI [24]: 32.2 µM
- TGI [25]: 29.4 µM
- TGI [55]: 24.3 µM
- TGI [26]: > 100 µM
- TGI [27]: 15.8 µM
- TGI [28]: 30.8 µM
- TGI [29]: > 100 µM
- TGI [30]: 19.4 µM
- TGI [31]: 24.4 µM
- TGI [32]: 29.4 µM
- TGI [33]: 31.4 µM
- TGI [34]: 18.1 µM
- TGI [35]: 16.3 µM
- TGI [36]: 5.43 µM
- TGI [37]: 50.4 µM
- TGI [39]: 34.3 µM
- TGI [56]: 26.7 µM
- TGI [40]: 38.4 µM
- TGI [57]: 25.3 µM
- TGI [41]: 36.1 µM
- TGI [42]: 29.5 µM
- TGI [43]: 32.5 µM
- TGI [58]: 17.4 µM
- TGI [44]: > 100 µM
- TGI [45]: 42.2 µM
- TGI [46]: > 100 µM
- TGI [48]: 20.6 µM
- TGI [49]: 32.7 µM
- TGI [50]: 27.5 µM
